Source: PubChem BioAssay AID1919002 (Molecular Pharmacology Branch, DTP, NCI, 2023)
“And” between values parts separate entries of the source, which are not always exact repeats. Equal values may be shown once.

Test system: 743489-274-T-PDC complex spheroid growth
Assay: Anticancer human tumor 743489-274-T-PDC patient-derived renal cell carcinoma cell line growth inhibition [AhR]
Conditions: for viability, T/C: stronger effect = lower value
From the text: Multicellular complex tumor spheroid response to aryl hydrocarbon receptor antagonists in combination with a variety of drugs and investigational agents in selected tumor cell lines
The current study was undertaken to assess response to aryl hydrocarbon receptor antagonists in combination with standard-of-care drugs and investigational agents in solid tumor complex spheroid models. Complex spheroids include a stromal component modeled by human endothelial cells (HUVEC) and fibroblasts modeled by human mesenchymal stem cells (MSCs). The concentration ranges selected for each drug and investigational agent were based upon clinically achievable concentrations if the clinical Cmax of the agent was known.
Compounds. The drugs and investigational agents: BAY 2416964 (NSC825713), GNF351 (NSC835774), CH-223191 (NSC835775), CPI-455 (NSC825282), aza-TdCyd (NSC777586), decitabine (NSC127716), belinostat (NSC758774), entinostat (NSC756642), pevonedistat (NSC761192), tazemetostat (NSC777109), talazoparib (NSC765396), olaparib (NSC753686), selinexor (NSC780203), nedisertib (M3814, NSC802822), bortezomib (NSC756655), venetoclax (NSC766270), doxorubicin (NSC123127), elimusertib (BAY189344, NSC800525), ceralasertib (AZD6738, NSC777638), TAK-243 (NSC785004), alisertib (NSC759677), etoposide (NSC141540), topotecan (NSC609699), eribulin (NSC707389), gemcitabine (NSC613327), carboplatin (NSC241240), cisplatin (NSC119875), and SN-38 (NSC673596) were obtained from the National Cancer Institute (NCI) Developmental Therapeutics Program Chemical Repository (32). The FDA-approved anticancer drug set is available from the Developmental Therapeutics Program at https://dtp.cancer.gov/organization/dscb/obtaining/available plates.htm. […] The stock solutions were prepared in dimethyl sulfoxide (DMSO, Sigma-Aldrich, St. Louis, MO, cat. D2650), except for the platinum compounds which were prepared in saline (Quality Biological, Gaithersburg, MD, cat. 114-055-101), at 800-fold the tested concentration and stored at -70 degrees C prior to their use. All drugs and investigational agents were tested over a range starting from a high concentration at or near the clinical Cmax and decreasing in half-log increments. If the clinical Cmax for an agent had not been determined, the highest concentration tested was 10 microM (Table 1).
Cell Culture. All cells were maintained in an incubator at 37 degrees C and 5% CO2 with 95% humidity. The PDC lines were cultured according to standard operating procedures established by the NCI PDMR (https://pdmr.cancer.gov). Briefly, all PDCs were thawed and cultured in Matrigel-coated flasks prepared with a working solution of 1X Ham's F-12 nutrient mix, without supplementation (Invitrogen, Waltham, MA, cat. 11765054), 100 U/mL penicillin-streptomycin (Invitrogen, cat. 15140122), and 2.5% Matrigel (Corning Inc., Corning, NY, cat. 354248) for the first three passages. All PDCs were cultured in complete DMEM/F-12 media containing advanced DMEM/F-12 (Invitrogen, cat. 12634028), 4.9% defined fetal bovine serum, heat inactivated (HyClone Laboratories Inc., Logan, UT, cat. SH30070.03HI), 389 ng/mL hydrocortisone (Sigma-Aldrich, cat. H4001), 9.7 ng/mL human EGF recombinant protein (Invitrogen, cat. PHG0313), 23.4 microg/mL adenine (Sigma-Aldrich, cat. A2786), 97.3 U/mL penicillin-streptomycin (Invitrogen, cat. 15140122), 1.9 mM L-glutamine (Invitrogen, cat. 25030081), and 9.7 microM Y-27632 dihydrochloride (Tocris Bioscience, Bristol, United Kingdom, cat. 1254). The PDCs were cultured in complete DMEM/F12 media without 10 microM Y-27632 dihydrochloride for at least two passages prior to the screen. The established cell lines NCI-H1341 and […] were cultured in DMEM/F-12, HEPES (Invitrogen, cat. 11330032), 5% defined fetal bovine serum (HyClone Laboratories Inc., cat. SH30070.03), ITS premix universal culture supplement [insulin (5 microg/mL), transferrin (5 microg/mL), and selenious acid (5 ng/mL)] […]

[1] = curve of first compound, second compound 0.1 µM
[2] = curve of first compound, second compound 0.316 µM
[3] = curve of first compound, second compound 1 µM
[4] = curve of first compound, second compound 3.16 µM
[5] = curve of first compound, second compound 10 µM
[6] = second compound 0.1 µM, first compound 0.0316 µM
[7] = second compound 0.1 µM, first compound 0.1 µM
[8] = second compound 0.1 µM, first compound 0.316 µM
[9] = second compound 0.1 µM, first compound 1 µM
[10] = second compound 0.1 µM, first compound 3.16 µM
[11] = second compound 0.1 µM, first compound 10 µM
[12] = second compound 0.316 µM, first compound 0.0316 µM
[13] = second compound 0.316 µM, first compound 0.1 µM
[14] = second compound 0.316 µM, first compound 0.316 µM
[15] = second compound 0.316 µM, first compound 1 µM
[16] = second compound 0.316 µM, first compound 3.16 µM
[17] = second compound 0.316 µM, first compound 10 µM
[18] = second compound 1 µM, first compound 0.0316 µM
[19] = second compound 1 µM, first compound 0.1 µM
[20] = second compound 1 µM, first compound 0.316 µM
[21] = second compound 1 µM, first compound 1 µM
[22] = second compound 1 µM, first compound 3.16 µM
[23] = second compound 1 µM, first compound 10 µM
[24] = second compound 3.16 µM, first compound 0.0316 µM
[25] = second compound 3.16 µM, first compound 0.1 µM
[26] = second compound 3.16 µM, first compound 0.316 µM
[27] = second compound 3.16 µM, first compound 1 µM
[28] = second compound 3.16 µM, first compound 3.16 µM
[29] = second compound 3.16 µM, first compound 10 µM
[30] = second compound 10 µM, first compound 0.0316 µM
[31] = second compound 10 µM, first compound 0.1 µM
[32] = second compound 10 µM, first compound 0.316 µM
[33] = second compound 10 µM, first compound 1 µM
[34] = second compound 10 µM, first compound 3.16 µM
[35] = second compound 10 µM, first compound 10 µM
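Note: spheroids exposed to agents for 7 days before readout.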
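Throughout, for viability, T/C: 100% = DMSO vehicle control wells.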

## COc1cc(Nc2ncc3c(n2)-c2ccc(Cl)cc2C(c2c(F)cccc2OC)=NC3)ccc1C(=O)O + CC(CO)NC(=O)c1cc(-c2ccc(Cl)cc2)nn(-c2cnn(C)c2)c1=O
[1]
  IC50: > 10000 nM
[2]
  IC50: > 10000 nM
[3]
  IC50: > 10000 nM
[4]
  IC50: > 10000 nM
[5]
  IC50: > 10000 nM
[6]
  viability, T/C: 96.9%
[7]
  viability, T/C: 95.2%
[8]
  viability, T/C: 91.4%
[9]
  viability, T/C: 84.4%
[10]
  viability, T/C: 86.4%
[11]
  viability, T/C: 88.9%
[12]
  viability, T/C: 98.7%
[13]
  viability, T/C: 90.3%
[14]
  viability, T/C: 91.3%
[15]
  viability, T/C: 86.6%
[16]
  viability, T/C: 93.5%
[17]
  viability, T/C: 85.5%
[18]
  viability, T/C: 90.6%
[19]
  viability, T/C: 97.3%
[20]
  viability, T/C: 95.5%
[21]
  viability, T/C: 76.4%
[22]
  viability, T/C: 87.9%
[23]
  viability, T/C: 87.3%
[24]
  viability, T/C: 101%
[25]
  viability, T/C: 104%
[26]
  viability, T/C: 95.2%
[27]
  viability, T/C: 85.7%
[28]
  viability, T/C: 82%
[29]
  viability, T/C: 84.9%
[30]
  viability, T/C: 91.2%
[31]
  viability, T/C: 102%
[32]
  viability, T/C: 86.9%
[33]
  viability, T/C: 93.9%
[34]
  viability, T/C: 88.6%
[35]
  viability, T/C: 94.5%

## CC(C)CC(NC(=O)C(Cc1ccccc1)NC(=O)c1cnccn1)B(O)O (configuration not stated)
Compound 0.000949 µM
  viability, T/C: 99.1% and 101% and 98%
Compound 0.003 µM
  viability, T/C: 95.6% and 109% and 101%
Compound 0.00949 µM
  viability, T/C: 106% and 110% and 101%
Compound 0.03 µM
  viability, T/C: 82.7% and 39.1% and 17.3%
Compound 0.0949 µM
  viability, T/C: 12.9% and 18.7% and 11.8%
Compound 0.3 µM
  viability, T/C: 11.7% and 8.88% and 4.65%
Curve of compound
  IC50: 51.3 nM and 24.9 nM and 19 nM

## O=C(C=Cc1cccc(S(=O)(=O)Nc2ccccc2)c1)NO + Cc1ccccc1N=Nc1ccc(NC(=O)c2ccnn2C)c(C)c1
[1]
  IC50: 3110 nM
[2]
  IC50: 2290 nM
[3]
  IC50: 2140 nM
[4]
  IC50: 3280 nM
[5]
  IC50: 1240 nM
[6]
  viability, T/C: 78.6%
[7]
  viability, T/C: 88.4%
[8]
  viability, T/C: 73%
[9]
  viability, T/C: 67.7%
[10]
  viability, T/C: 49.9%
[11]
  viability, T/C: 31%
[12]
  viability, T/C: 85.4%
[13]
  viability, T/C: 78.3%
[14]
  viability, T/C: 75.9%
[15]
  viability, T/C: 62.6%
[16]
  viability, T/C: 44.8%
[17]
  viability, T/C: 26.9%
[18]
  viability, T/C: 77.1%
[19]
  viability, T/C: 75.6%
[20]
  viability, T/C: 75.5%
[21]
  viability, T/C: 70.6%
[22]
  viability, T/C: 39.5%
[23]
  viability, T/C: 25%
[24]
  viability, T/C: 79.7%
[25]
  viability, T/C: 81.2%
[26]
  viability, T/C: 75.2%
[27]
  viability, T/C: 68.9%
[28]
  viability, T/C: 50.7%
[29]
  viability, T/C: 25.8%
[30]
  viability, T/C: 75.4%
[31]
  viability, T/C: 76.9%
[32]
  viability, T/C: 64%
[33]
  viability, T/C: 56.1%
[34]
  viability, T/C: 34%
[35]
  viability, T/C: 27.9%
